Measured values as given in ChEMBL document CHEMBL3399937, “(18)F-AmBF3-MJ9: a novel radiofluorinated bombesin derivative for prostate cancer imaging” (Bioorg Med Chem, 2015).

Columns and labels:
Settings in all cases: in vivo
Blood [1] = assay: Biodistribution in blood of NSG mouse xenografted with human PC-3 tumor at 0.37 to 0.74 MBq, iv after 1 hr by gamma counting analysis in presence of BAY86-7548; assay type: ADME, organism-based
[2] = Biodistribution in fat of NSG mouse xenografted with human PC-3 tumor at 0.37 to 0.74 MBq, iv after 1 hr by gamma counting analysis in presence of BAY86-7548; assay type: ADME, organism-based, Adipose tissue
Mus musculus [3] = assay: Biodistribution in seminal gland of NSG mouse xenografted with human PC-3 tumor at 0.37 to 0.74 MBq, iv after 1 hr by gamma counting analysis in presence of BAY86-7548; assay type: ADME, organism-based
Mus musculus [4] = assay: Biodistribution in testis of NSG mouse xenografted with human PC-3 tumor at 0.37 to 0.74 MBq, iv after 1 hr by gamma counting analysis in presence of BAY86-7548; assay type: ADME, organism-based
Intestine [5] = assay: Biodistribution in intestine of NSG mouse xenografted with human PC-3 tumor at 0.37 to 0.74 MBq, iv after 1 hr by gamma counting analysis in presence of BAY86-7548; assay type: ADME, organism-based
Spleen [6] = assay: Biodistribution in spleen of NSG mouse xenografted with human PC-3 tumor at 0.37 to 0.74 MBq, iv after 1 hr by gamma counting analysis in presence of BAY86-7548; assay type: ADME, organism-based
Liver [7] = assay: Biodistribution in liver of NSG mouse xenografted with human PC-3 tumor at 0.37 to 0.74 MBq, iv after 1 hr by gamma counting analysis in presence of BAY86-7548; assay type: ADME, organism-based
Pancreas [8] = assay: Biodistribution in pancreas of NSG mouse xenografted with human PC-3 tumor at 0.37 to 0.74 MBq, iv after 1 hr by gamma counting analysis in presence of BAY86-7548; assay type: ADME, organism-based
Mus musculus [9] = assay: Biodistribution in adrenal gland of NSG mouse xenografted with human PC-3 tumor at 0.37 to 0.74 MBq, iv after 1 hr by gamma counting analysis in presence of BAY86-7548; assay type: ADME, organism-based
Kidney [10] = assay: Biodistribution in kidney of NSG mouse xenografted with human PC-3 tumor at 0.37 to 0.74 MBq, iv after 1 hr by gamma counting analysis in presence of BAY86-7548; assay type: ADME, organism-based
Lung [11] = assay: Biodistribution in lung of NSG mouse xenografted with human PC-3 tumor at 0.37 to 0.74 MBq, iv after 1 hr by gamma counting analysis in presence of BAY86-7548; assay type: ADME, organism-based
Heart [12] = assay: Biodistribution in heart of NSG mouse xenografted with human PC-3 tumor at 0.37 to 0.74 MBq, iv after 1 hr by gamma counting analysis in presence of BAY86-7548; assay type: ADME, organism-based
Tumour [13] = assay: Biodistribution in tumor of NSG mouse xenografted with human PC-3 tumor at 0.37 to 0.74 MBq, iv after 1 hr by gamma counting analysis in presence of BAY86-7548; assay type: ADME, organism-based, Neoplasm
Muscle tissue [14] = assay: Biodistribution in muscle of NSG mouse xenografted with human PC-3 tumor at 0.37 to 0.74 MBq, iv after 1 hr by gamma counting analysis in presence of BAY86-7548; assay type: ADME, organism-based
Bone [15] = assay: Biodistribution in bone of NSG mouse xenografted with human PC-3 tumor at 0.37 to 0.74 MBq, iv after 1 hr by gamma counting analysis in presence of BAY86-7548; assay type: ADME, organism-based, Bone element
Brain [16] = assay: Biodistribution in brain of NSG mouse xenografted with human PC-3 tumor at 0.37 to 0.74 MBq, iv after 1 hr by gamma counting analysis in presence of BAY86-7548; assay type: ADME, organism-based
Blood [17] = assay: Biodistribution in blood of NSG mouse xenografted with human PC-3 tumor at 0.37 to 0.74 MBq, iv after 2 hrs by gamma counting analysis; assay type: ADME, organism-based
[18] = Biodistribution in fat of NSG mouse xenografted with human PC-3 tumor at 0.37 to 0.74 MBq, iv after 2 hrs by gamma counting analysis; assay type: ADME, organism-based, Adipose tissue
Mus musculus [19] = assay: Biodistribution in seminal gland of NSG mouse xenografted with human PC-3 tumor at 0.37 to 0.74 MBq, iv after 2 hrs by gamma counting analysis; assay type: ADME, organism-based
Mus musculus [20] = assay: Biodistribution in testis of NSG mouse xenografted with human PC-3 tumor at 0.37 to 0.74 MBq, iv after 2 hrs by gamma counting analysis; assay type: ADME, organism-based
Intestine [21] = assay: Biodistribution in intestine of NSG mouse xenografted with human PC-3 tumor at 0.37 to 0.74 MBq, iv after 2 hrs by gamma counting analysis; assay type: ADME, organism-based
Spleen [22] = assay: Biodistribution in spleen of NSG mouse xenografted with human PC-3 tumor at 0.37 to 0.74 MBq, iv after 2 hrs by gamma counting analysis; assay type: ADME, organism-based
Liver [23] = assay: Biodistribution in liver of NSG mouse xenografted with human PC-3 tumor at 0.37 to 0.74 MBq, iv after 2 hrs by gamma counting analysis; assay type: ADME, organism-based
Pancreas [24] = assay: Biodistribution in pancreas of NSG mouse xenografted with human PC-3 tumor at 0.37 to 0.74 MBq, iv after 2 hrs by gamma counting analysis; assay type: ADME, organism-based
Mus musculus [25] = assay: Biodistribution in adrenal gland of NSG mouse xenografted with human PC-3 tumor at 0.37 to 0.74 MBq, iv after 2 hrs by gamma counting analysis; assay type: ADME, organism-based
Kidney [26] = assay: Biodistribution in kidney of NSG mouse xenografted with human PC-3 tumor at 0.37 to 0.74 MBq, iv after 2 hrs by gamma counting analysis; assay type: ADME, organism-based
Lung [27] = assay: Biodistribution in lung of NSG mouse xenografted with human PC-3 tumor at 0.37 to 0.74 MBq, iv after 2 hrs by gamma counting analysis; assay type: ADME, organism-based
Heart [28] = assay: Biodistribution in heart of NSG mouse xenografted with human PC-3 tumor at 0.37 to 0.74 MBq, iv after 2 hrs by gamma counting analysis; assay type: ADME, organism-based
Tumour [29] = assay: Biodistribution in tumor of NSG mouse xenografted with human PC-3 tumor at 0.37 to 0.74 MBq, iv after 2 hrs by gamma counting analysis; assay type: ADME, organism-based, Neoplasm
Muscle tissue [30] = assay: Biodistribution in muscle of NSG mouse xenografted with human PC-3 tumor at 0.37 to 0.74 MBq, iv after 2 hrs by gamma counting analysis; assay type: ADME, organism-based
Bone [31] = assay: Biodistribution in bone of NSG mouse xenografted with human PC-3 tumor at 0.37 to 0.74 MBq, iv after 2 hrs by gamma counting analysis; assay type: ADME, organism-based, Bone element
Brain [32] = assay: Biodistribution in brain of NSG mouse xenografted with human PC-3 tumor at 0.37 to 0.74 MBq, iv after 2 hrs by gamma counting analysis; assay type: ADME, organism-based

Drug uptake (Blood [1]): 0.48 % ID/g
Drug uptake [2]: 0.12 % ID/g
Drug uptake (Mus musculus [3]): 0.12 % ID/g
Drug uptake (Mus musculus [4]): 0.25 % ID/g
Drug uptake (Intestine [5]): 0.25 % ID/g
Drug uptake (Spleen [6]): 0.32 % ID/g
Drug uptake (Liver [7]): 1.05 % ID/g
Drug uptake (Pancreas [8]): 0.42 % ID/g
Drug uptake (Mus musculus [9]): 0.21 % ID/g
Drug uptake (Kidney [10]): 6.66 % ID/g
Drug uptake (Lung [11]): 0.71 % ID/g
Drug uptake (Heart [12]): 0.18 % ID/g
Drug uptake (Tumour [13]): 0.54 % ID/g
Drug uptake (Muscle tissue [14]): 0.14 % ID/g
Drug uptake (Bone [15]): 0.25 % ID/g
Drug uptake (Brain [16]): 0.03 % ID/g
Drug uptake (Blood [17]): 0.32 % ID/g
Drug uptake [18]: 0.05 % ID/g
Drug uptake (Mus musculus [19]): 0.15 % ID/g
Drug uptake (Mus musculus [20]): 0.13 % ID/g
Drug uptake (Intestine [21]): 8.67 % ID/g
Drug uptake (Spleen [22]): 0.26 % ID/g
Drug uptake (Liver [23]): 0.33 % ID/g
Drug uptake (Pancreas [24]): 4.75 % ID/g
Drug uptake (Mus musculus [25]): 0.29 % ID/g
Drug uptake (Kidney [26]): 1.46 % ID/g
Drug uptake (Lung [27]): 0.4 % ID/g
Drug uptake (Heart [28]): 0.06 % ID/g
Drug uptake (Tumour [29]): 2.2 % ID/g
Drug uptake (Muscle tissue [30]): 0.03 % ID/g
Drug uptake (Bone [31]): 0.18 % ID/g
Drug uptake (Brain [32]): 0.01 % ID/g
SMILES: CC(C)C[C@H](NC(=O)C[C@H](O)[C@H](CC(C)C)NC(=O)[C@H](Cc1cnc[nH]1)NC(=O)CNC(=O)[C@@H](NC(=O)[C@H](C)NC(=O)[C@H](Cc1c[nH]c2ccccc12)NC(=O)[C@H](CCC(N)=O)NC(=O)[C@@H](Cc1ccccc1)NC(=O)CN1CCC(NC(=O)Cn2cc(C[N+](C)(C)C[B-](F)(F)[17F])nn2)CC1)C(C)C)C(N)=O
